Where two headings read alike, the source gives them in different places.
Legend:
[1] = Compound A pharmacokinetics after oral administration of a single dose with and without ritonavir, human subjects, fed; assay type: in vivo; settings: for half-life / Cmax / AUC / Tmax: plasma, po; for half-life / Ae % (drug recovered unchanged in urine, percent of administered dose): arithmetic mean; for Cmax / AUC: geometric mean; for AUC: read-out: AUC (area under the concentration-time curve from time 0 to infinity); for Tmax: median
Procedure: Nos. 11/008325, filed Dec. 8, 2004, and 60/591,351, filed Jul. 26, 2004, all of which are hereby incorporated by reference for this purpose. A total of 30 human subjects were administered a single 100 mg, 300 mg, 800 mg, 1000 mg, 1500 mg, 2000 mg, or 3000 mg dose of a spray-dried composition comprising 90 wt % amorphous Compound A and 10 wt % hydroxypropyl methyl cellulose acetate succinate (HPMCAS), under fed conditions according to the schedule found in Table I. […] Each plasma sample was analyzed for the presence of Compound A and the following pharmacokinetic parameters for Compound A were determined for each subject: area under the concentration-time curve from time 0 extrapolated to infinity (AUC), maximum observed plasma concentration (Cmax), time to first occurrence of Cmax (Tmax), terminal phase plasma half-life (t1/2), and cumulative amount of drug recovered unchanged in the urine expressed as a percentage of administered dose (Ae %). The mean to t1/2 value for the 100 mg dose group was calculated from three subjects. The t1/2 values for three subjects at this dose level were deemed unreliable owing to poor estimates of the terminal phase rate constant from regressions (r^2 values less than 0.9) and, therefore, were not included in the summary statistics. Similarly, the th for one subject in the 800 mg dose group was deemed unreliable owing to poor estimate of the terminal phase rate constant from regression (r^2 values less than 0.9) and therefore was not included in the summary statistics.

[2] = as above; assay type: in vivo; settings: for Ae % (drug recovered unchanged in urine, percent of administered dose): arithmetic mean
[3] = 100 mg, single oral dose 100 mg, without ritonavir
[4] = 300 mg, single oral dose 300 mg, without ritonavir
[5] = 800 mg, single oral dose 800 mg, without ritonavir
[6] = 1000 mg, single oral dose 1000 mg, without ritonavir
[7] = 1500 mg, single oral dose 1500 mg, without ritonavir
[8] = 2000 mg, single oral dose 2000 mg, without ritonavir
[9] = 3000 mg, single oral dose 3000 mg, without ritonavir
[10] = single oral dose 400 mg + ritonavir (100 mg every 12 hours for 3 doses)
[11] = single oral dose 800 mg + ritonavir (100 mg every 12 hours for 3 doses)

Question: What does the source list for `C=CCNC(=O)[C@H]1N(C(=O)[C@@H](O)[C@H](Cc2ccccc2)NC(=O)c2cccc(O)c2C)CSC1(C)C` [Compound A, (4R)-N-allyl-3-{(2S,3S)-2-hydroxy-3-[(3-hydroxy-2-methylbenzoyl)amino]-4-phenylbutanoyl}-5,5-dimethyl-1,3-thiazolidine-4-carboxamide]?
Answer: half-life ([1]; 100 mg, single oral dose 100 mg, without ritonavir, N = 3, read-out: t½ (terminal phase plasma half-life) (converted)): 8.63 h; Cmax [1, 3]: 160 ng/mL; AUC [1, 3]: 740 ng·h/mL; Tmax [1, 3]: 3 h; half-life ([1]; 300 mg, single oral dose 300 mg, without ritonavir, read-out: t½ (terminal phase plasma half-life) (converted)): 8.17 h; Cmax [1, 4]: 720 ng/mL; AUC [1, 4]: 3560 ng·h/mL; Tmax [1, 4]: 2.5 h; half-life ([1]; 800 mg, single oral dose 800 mg, without ritonavir, N = 5, read-out: t½ (terminal phase plasma half-life) (converted)): 11.7 h; Cmax [1, 5]: 3120 ng/mL; AUC [1, 5]: 15800 ng·h/mL; Tmax [1, 5]: 3 h; half-life ([1]; 1000 mg, single oral dose 1000 mg, without ritonavir, read-out: t½ (terminal phase plasma half-life) (converted)): 7.28 h; Cmax [1, 6]: 3350 ng/mL; AUC [1, 6]: 16900 ng·h/mL; Tmax [1, 6]: 3 h; half-life ([1]; 1500 mg, single oral dose 1500 mg, without ritonavir, read-out: t½ (terminal phase plasma half-life) (converted)): 9.17 h; Cmax [1, 7]: 7040 ng/mL; AUC [1, 7]: 41900 ng·h/mL; Tmax [1, 7]: 4 h; half-life ([1]; 2000 mg, single oral dose 2000 mg, without ritonavir, read-out: t½ (terminal phase plasma half-life) (converted)): 10.4 h; Cmax [1, 8]: 7490 ng/mL; AUC [1, 8]: 44200 ng·h/mL; Tmax [1, 8]: 2 h; half-life ([1]; 3000 mg, single oral dose 3000 mg, without ritonavir, read-out: t½ (terminal phase plasma half-life) (converted)): 7.6 h; Cmax [1, 9]: 11200 ng/mL; AUC [1, 9]: 86400 ng·h/mL; Tmax [1, 9]: 4 h; half-life ([1]; single oral dose 400 mg + ritonavir (100 mg every 12 hours for 3 doses), read-out: t½ (terminal phase plasma half-life) (converted)): 8.56 h; Cmax [1, 10]: 5210 ng/mL; Tmax [1, 10]: 3.51 h; half-life ([1]; single oral dose 800 mg + ritonavir (100 mg every 12 hours for 3 doses), read-out: t½ (terminal phase plasma half-life) (converted)): 8.39 h; Cmax [1, 11]: 7350 ng/mL; Tmax [1, 11]: 4 h; Ae % (drug recovered unchanged in urine, percent of administered dose) ([1]; single oral dose 100 mg, without ritonavir): 1.34%; Ae % (drug recovered unchanged in urine, percent of administered dose) ([1]; single oral dose 300 mg, without ritonavir): 2.04%; Ae % (drug recovered unchanged in urine, percent of administered dose) ([1]; single oral dose 800 mg, without ritonavir): 4.00%; Ae % (drug recovered unchanged in urine, percent of administered dose) ([1]; single oral dose 1000 mg, without ritonavir): 4.21%; Ae % (drug recovered unchanged in urine, percent of administered dose) ([1]; single oral dose 2000 mg, without ritonavir): 7.92%; Ae % (drug recovered unchanged in urine, percent of administered dose) ([1]; single oral dose 3000 mg, without ritonavir): 9.05%; AUC ([2]; plasma, single oral dose 400 mg + ritonavir (100 mg every 12 hours for 3 doses), geometric mean, read-out: AUC (area under the concentration-time curve from time 0 to infinity)): 42500 ng·h/mL; Ae % (drug recovered unchanged in urine, percent of administered dose) [2, 10]: 20.4%; Ae % (drug recovered unchanged in urine, percent of administered dose) [2, 11]: 19.4%; AUC (area under the concentration-time curve from time 0 to infinity) ([2]; single oral dose 800 mg + ritonavir (100 mg every 12 hours for 3 doses), geometric mean): 71400 ng·h/mL

Reference: patent US20050171037A1, “Therapeutic combinations” (Agouron Pharmaceuticals, Inc., priority 2004, published 2005)
